Assay [1] deals with T1, CB1 receptor (Homo sapiens, UniProt P21554). The assay can be described thus: cell-based. Also on record: host or cells: PathHunter cell lines. As to the method:
(§1) The PathHunter® β-Arrestin assay monitors the activation of a GPCR in a homogenous, non-imaging assay format using a technology developed by DiscoverX called Enzyme Fragment Complementation (EFC) with β-galactosidase (3-Gal) as the functional reporter. […] EA is fused to β-Arrestin and PK is fused to the GPCR of interest.
(§2) PathHunter cell lines were expanded from freezer stocks according to standard procedures. Cells were seeded in a total volume of 20 μL into white walled, 384-well microplates and incubated at 37° C. for the appropriate time prior to testing. For agonist activity determination, cells were incubated with sample to induce response. Intermediate dilution of sample stocks was performed to generate 5× sample in assay buffer. 5 μL of 5× sample was added to cells and incubated at 37° C. or room temperature for 90 to 180 minutes. Vehicle concentration was 1%. Assay signal was generated through a single addition of 12.5 or 15 μL (50% v/v) of PathHunter Detection reagent cocktail, followed by a one hour incubation at room temperature. Microplates were read following signal generation with a PerkinElmer Envision™ instrument for chemiluminescent signal detection. Compound activity was analyzed using CBIS data analysis suite (ChemInnovation, CA). For agonist assays, percentage activity was calculated using the following formula: % Activity=100%×(mean RLU of test sample− mean RLU of vehicle control)/(mean MAX control ligand− mean RLU of vehicle control).

Assay [2] concerns the target T2, CB2 receptor (Homo sapiens, UniProt P34972). Kind of assay: cell-based. Also on record: host or cells: cAMP Hunter cell lines. As for the experimental part:
as §1, §2

The target in assay [3] is T1, CB1 receptor. The assay can be described thus: CB1 competitive radioligand binding assay ([3H] SR141716A). More on the design: expressed in transfected cells; host or cells: Chem-1 cells. As to conditions: for inhibition at 0.5 µM: 0.5 μM compound, 2.0 nM [3H] SR141716A, 90 min 37° C. As for the experimental part: (§3) J Med Chem. 41(26): 5177-5187 (1998); and Munro S., et al. Molecular characterization of a peripheral receptor for cannabinoids. Nature 365:61-65 (1993).
CB1 Radioligand Binding Assay: A compound of the invention (0.5 μM in 1% DMSO) was incubated with Chem-1 cells expressing human recombinant CB1 receptor in buffer (50 mM HEPES, pH 7.4, 5 mM MgCl2, 1 mM CaCl2, 0.2% BSA) for 90 minutes at 37° C. in the presence of 2.0 nM [H^3] SR141716A (CB1 radioligand). % Inhibition was determined as a function of radioligand binding to the CB1 receptor.

Assay [4] addresses T2, CB2 receptor. Kind of assay: CB2 competitive radioligand binding assay ([3H] WIN-55,212-2). More on the design: expressed in transfected cells; host or cells: CHO-K1 cells. As to conditions: for Fold Selectivity (CB1/CB2): Table 3, ratio of Ki CB1/CB2; for inhibition at 0.05 µM: 0.05 μM compound, 2.4 nM [3H] WIN-55,212-2, 90 min 37° C. As for the experimental part:
as §3
CB2 Radioligand Binding Assay: A compound of the invention (0.05 μM in 1% DMSO) was incubated with CHO-K1 cells expressing human recombinant CB2 receptor in buffer (20 mM HEPES, pH 7.0, 0.5% BSA) for 90 minutes at 37° C. in the presence of 2.4 nM [H^3] WIN-55,212-2 (CB2 radioligand). % Inhibition was determined as a function of radioligand binding to the […].

Where [5] appears, read: PathHunter agonist mode, read-out: CB2 Activity (β-Arrestin).
Where [6] appears, read: PathHunter agonist mode, read-out: CB1 Activity (β-Arrestin).

pEC50, pKi: −log10 of the molar value. Like-named read-outs stand apart in the source and are kept apart here.

By pKi is commonly meant the negative decadic logarithm of the Ki, by convention in mol/L. One may read the inhibition as the relative decrease from the control value, in per cent.

T2 sequence (P34972 whole entry): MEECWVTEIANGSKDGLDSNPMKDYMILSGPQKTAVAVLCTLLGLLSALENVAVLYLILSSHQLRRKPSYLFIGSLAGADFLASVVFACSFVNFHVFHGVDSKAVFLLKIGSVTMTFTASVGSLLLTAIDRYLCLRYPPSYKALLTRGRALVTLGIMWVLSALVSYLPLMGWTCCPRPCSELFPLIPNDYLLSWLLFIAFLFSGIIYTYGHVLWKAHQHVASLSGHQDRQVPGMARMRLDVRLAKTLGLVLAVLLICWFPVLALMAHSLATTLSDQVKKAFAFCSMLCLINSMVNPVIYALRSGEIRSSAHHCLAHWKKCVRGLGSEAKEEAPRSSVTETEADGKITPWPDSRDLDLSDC
T1 sequence (P21554 whole entry, the tested form may be a part): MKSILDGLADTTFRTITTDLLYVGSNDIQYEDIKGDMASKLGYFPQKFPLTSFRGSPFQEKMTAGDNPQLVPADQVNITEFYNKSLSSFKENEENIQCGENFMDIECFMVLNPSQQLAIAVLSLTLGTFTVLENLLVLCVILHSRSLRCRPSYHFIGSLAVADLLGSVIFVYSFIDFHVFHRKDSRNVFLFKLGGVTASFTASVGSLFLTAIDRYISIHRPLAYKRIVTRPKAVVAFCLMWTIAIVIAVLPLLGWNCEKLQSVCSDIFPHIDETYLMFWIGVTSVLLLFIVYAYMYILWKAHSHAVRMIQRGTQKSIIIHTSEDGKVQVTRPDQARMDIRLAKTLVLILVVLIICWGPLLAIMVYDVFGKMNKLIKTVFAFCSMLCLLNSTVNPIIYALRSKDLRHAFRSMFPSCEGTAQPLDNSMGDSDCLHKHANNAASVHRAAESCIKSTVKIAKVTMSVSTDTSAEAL

As to `CCCCCCC(C)(C)c1cc(O)c2c(c1)OC(C)(C)[C@@H]1CC=C(C(=O)NC3CNC3)C[C@@H]21` [Compound 103, (6aR,10aR)-N-(azetidin-3-yl)-1-hydroxy-6,6-dimethyl-3-(2-methyloctan-2-yl)-6a,7,10,10a-tetrahydro-6H-benzo[c]chromene-9-carboxamide], the pEC50 in assay [1] is 5.77; in assay [2] (setting [5]), 8.02. For the same compound, the pKi in assay [3] was 6.57; in assay [4] it was 7.29. Also, in assay [4], the “Fold Selectivity (CB1/CB2)” value is 5.3.

On to `CCCCCCC(C)(C)C1=CC2=C(C(=O)C1=O)[C@@H]1CC(C(=O)O)=CC[C@H]1C(C)(C)O2` [Compound 30, (6aR,10aR)-6,6-dimethyl-3-(2-methyloctan-2-yl)-1,2-dioxo-2,6,6a,7,10,10a-hexahydro-1H-benzo[c]chromene-9-carboxylic acid], for which the pEC50 in assay [1] (setting [6]) and in assay [2] (setting [5]) was less than 5.52 each time. Further, the inhibition at 0.5 µM in assay [3] came to 19%. In addition, in assay [4], the inhibition at 0.05 µM is -2%.

For the compound `CCCCCCC(C)(C)c1cc(O)c2c(c1)OC(C)(C)[C@@H]1CC=C(C(=O)NC3COC3)C[C@@H]21` [Compound 90, (6aR,10aR)-1-hydroxy-6,6-dimethyl-3-(2-methyloctan-2-yl)-N-(oxetan-3-yl)-6a,7,10,10a-tetrahydro-6H-benzo[c]chromene-9-carboxamide], the pEC50 in assay [1] was 6.89; in assay [2] (setting [5]), 8.57. Besides, the pKi in assay [3] was 8.00; in assay [4] it was 8.60. In addition, the “Fold Selectivity (CB1/CB2)” value in assay [4] is given as 4.0.

In the case of `CCCCCCC(C)(C)c1cc(O)c2c(c1)OC(C)(C)[C@H]1CC=C(C(=O)O)C[C@H]21` [Compound 20, (6aS,10aS)-1-Hydroxy-6,6-dimethyl-3-(2-methyloctan-2-yl)-6a,7,10,10a-tetrahydro-6H-benzo[c]chromene-9-carboxylic acid], the pEC50 in assay [1] and in assay [2] was less than 5.52 in each case. Further, the inhibition at 0.5 µM in assay [3] was -10%. Besides, in assay [4], the inhibition at 0.05 µM came out at 9%.

For the compound `CCCCCCC(C)(C)c1cc(O)c2c(c1)OC(C)(C)[C@@H]1CC=C(C(=O)NOC)C[C@@H]21` [Compound 107], the values for the pEC50 in assay [1] (setting [6]) and in assay [2] (setting [5]) were 7.31 and 8.54, respectively. In addition, the pKi is 7.44 in assay [3] and 8.31 in assay [4]. Besides, the “Fold Selectivity (CB1/CB2)” value in assay [4] amounted to 7.4.

With `CCCCCCC(C)(C)c1cc(O)c2c(c1)OC(C)(C)[C@@H]1CC=C(C(=O)N3CCNCC3)C[C@@H]21` [Compound 104, ((6aR,10aR)-1-hydroxy-6,6-dimethyl-3-(2-methyloctan-2-yl)-6a,7,10,10a-tetrahydro-6H-benzo[c]chromen-9-yl)(piperazin-1-yl)methanone], the pEC50 is 5.35 in assay [1] and 8.30 in assay [2] (setting [5]). Moreover, the values for the pKi in assay [3] and in assay [4] were 6.59 and 7.52, respectively. For the same compound, in assay [4], the “Fold Selectivity (CB1/CB2)” value amounted to 8.7.

As for `CCCCCCC(C)(C)c1cc(O)c2c(c1)OC(C)(C)[C@@H]1CC=C(C(=O)N[C@H](C)C(=O)O)C[C@@H]21` [Compound 2, ((6aR,10aR)-1-Hydroxy-6,6-dimethyl-3-(2-methyloctan-2-yl)-6a,7,10,10a-tetrahydro-6H-benzo[c]chromene-9-carbonyl)-D-alanine], the pEC50 in assay [1] (setting [6]) and in assay [2] (setting [5]) was less than 5.52 each time. The inhibition at 0.5 µM in assay [3] was 9%. Also, in assay [4], the inhibition at 0.05 µM worked out at 0%.

In the case of `CCCCCCC(C)(C)c1cc(O)c2c(c1)OC(C)(C)[C@@H]1CC=C(C(=O)NS(C)(=O)=O)C[C@@H]21` [Compound 108, (6aR,10aR)-1-hydroxy-6,6-dimethyl-3-(2-methyloctan-2-yl)-N-(methylsulfonyl)-6a,7,10,10a-tetrahydro-6H-benzo[c]chromene-9-carboxamide], the pEC50 in assay [1] was 5.84; in assay [2] it was 7.53. Further, the figures for the pKi in assay [3] and in assay [4] were less than 5.52 and 6.52, respectively. Further, the “Fold Selectivity (CB1/CB2)” value in assay [4] is more than 9.9.

As to `CCCCCCC(C)(C)c1cc(O)c2c(c1)OC(C)(C)[C@@H]1CC=C(C(=O)NC3(C(F)(F)F)CCC3)C[C@@H]21` [Compound 96, (6aR,10aR)-1-hydroxy-6,6-dimethyl-3-(2-methyloctan-2-yl)-N-(1-(trifluoromethyl)cyclobutyl)-6a,7,10,10a-tetrahydro-6H-benzo[c]chromene-9-carboxamide], the pEC50 was 7.89 in assay [1] and 8.52 in assay [2] (setting [5]). Further, the negative logarithm of the Ki (pKi) in assay [3] was 7.60; in assay [4] it was 8.89. The “Fold Selectivity (CB1/CB2)” value in assay [4] was 19.2.

For `CCCCCCC(C)(C)c1cc(O)c2c(c1)OC(C)(C)[C@@H]1CC=C(C(=O)NOC(C)(C)C)C[C@@H]21` [Compound 88, (6aR,10aR)-N-(tert-butoxy)-1-hydroxy-6,6-dimethyl-3-(2-methyloctan-2-yl)-6a,7,10,10a-tetrahydro-6H-benzo[c]chromene-9-carboxamide], the pEC50 was 8.23 in assay [1] and 8.77 in assay [2] (setting [5]). The pKi in assay [3] was 8.27; in assay [4], 9.00. Besides, the “Fold Selectivity (CB1/CB2)” value in assay [4] stood at 5.7.

In the case of `CCCCCCC(C)(C)c1cc(O)c2c(c1)OC(C)(C)[C@@H]1CC=C(C(=O)NCCC(=O)O)C[C@@H]21` [Compound 26, 3-((6aR,10aR)-1-Hydroxy-6,6-dimethyl-3-(2-methyloctan-2-yl)-6a,7,10,10a-tetrahydro-6H-benzo[c]chromene-9-carboxamido)propanoic acid], the pEC50 in assay [1] (setting [6]) and in assay [2] (setting [5]) was less than 5.52 each time. The inhibition at 0.5 µM in assay [3] is 9%. The inhibition at 0.05 µM in assay [4] came out at 2%.

With `CCCCCCC(C)(C)c1cc(O)c2c(c1)OC(C)(C)[C@@H]1CC=C(C#N)C[C@@H]21` [Compound 112, (6aR,10aR)-1-hydroxy-6,6-dimethyl-3-(2-methyloctan-2-yl)-6a,7,10,10a-tetrahydro-6H-benzo[c]chromene-9-carbonitrile], the pEC50 in assay [1] (setting [6]) was 8.70; in assay [2] (setting [5]), 8.85. For the same compound, the values for the pKi in assay [3] and in assay [4] were 9.00 and 9.15, respectively. Besides, the “Fold Selectivity (CB1/CB2)” value in assay [4] worked out at 1.4.

`CCCCCCC(C)(C)c1cc(O)c2c(c1)OC(C)(C)[C@@H]1CC=C(C(=O)NC(C)(C)CC(=O)O)C[C@@H]21` [Compound 27, 3-((6aR,10aR)-1-Hydroxy-6,6-dimethyl-3-(2-methyloctan-2-yl)-6a,7,10,10a-tetrahydro-6H-benzo[c]chromene-9-carboxamido)-3-methylbutanoic acid]: the pEC50 in assay [1] (setting [6]) and in assay [2] (setting [5]) was less than 5.52 in each case. The inhibition at 0.5 µM in assay [3] came out at 9%. The inhibition at 0.05 µM in assay [4] came out at 7%.

For `CCCCCCC(C)(C)c1cc(O)c2c(c1)OC(C)(C)[C@@H]1CC=C(C(=O)N[C@H](Cc3ccc(O)cc3)C(=O)O)C[C@@H]21` [Compound 3], the pEC50 in assay [1] and in assay [2] was less than 5.52 throughout. The inhibition at 0.5 µM in assay [3] was determined as 13%. For the same compound, the inhibition at 0.05 µM in assay [4] came to 8%.

Turning to `CC(C)(CCCCCC(=O)O)c1cc(O)c2c(c1)OC(C)(C)[C@@H]1CC=C(C(=O)O)C[C@@H]21` [Compound 40], the values for the pEC50 in assay [1] (setting [6]) and in assay [2] (setting [5]) were less than 5.00 and less than 6.00, respectively.

Source of the values: patent publication US20210284621A1 (priority 2018, published 2021).
